{"source": "patent US12371676B2", "about": "“Circularly permutated haloalkane transferase fusion molecules” (MAX-PLANCK-GESELLSCHAFT ZUR FÖRDERUNG DER WISSENSCHAFTEN E. …, priority 2019, dated 2025)", "key": {"[1]": {"assay": "FP kinetic assay of calcium integrators (split integrator, CaProLa)", "assay_type": "biochemical", "conditions": "in combination with the calmodulin/M13 sensor system; versus PEP1", "protocol": "FIG. 6 M13—cpHaloΔ9mer and 9mer—CaM linker length optimization: All combinations of split integrators composed of M13—(GGS)1-3—cpHaloΔ9mer and 9mer—(GGS)1-3—CaM were tested in an FP kinetic assay in the presence of calcium or EGTA.\nFIG. 8 Performance of CaProLa constructs with different M13—CaM linkers: FP kinetics of different CaProLa constructs and the split integrator under four conditions: in the presence of calcium (red), in the absence of calcium (purple), in the absence of calcium but spiked with calcium after 1 h (cyan), in the presence of calcium, followed by an EGTA spike to stop the reaction, followed by a calcium spike to restart the reaction (green). Small arrows indicate the EGTA and calcium spikes. Curves in the presence of calcium (red) were fitted to a second order reaction rate equation to determine the rate constants. All experiments were performed in triplicates. GGTGGS: SEQ ID NO 027.\nFIG. 11 Performance of second generation CaProLa constructs: A fluorescence polarization kinetic assays with Halo-TMR of CaProLa 2.1-2.3 were performed under four conditions: in the presence of calcium (red), in the absence of calcium (purple), in the absence of calcium but spiked with calcium after 1 h (cyan), in the presence of calcium, followed by an EGTA spike to stop the reaction, followed by a calcium spike (green). Small arrows indicate the EGTA and calcium spikes. […]"}, "[2]": {"assay": "FKBP/FRB model system, FP labelling kinetics with or without rapamycin", "assay_type": "biochemical", "conditions": "in combination with a FKPB/FRB sensor system; versus PEP1", "protocol": "FIG. 13 Model system to test split HaloTag™ performance: Left: Scheme explaining the FKBP/FRB based model system. cpHaloΔ and the 9mer peptide are fused to FKBP and FRB, respectively, to render the split complementation and activity dependent on their rapamycin dependent interaction. Right: Labelling kinetics of the model system were followed via a fluorescence polarization assay in the presence or absence of rapamycin (Rap). Halo-TMR was used as substrate and each experiment was performed in triplicate.\nFIG. 14 Impact of different flexible linkers in the FKBP/FRB model system: Labelling kinetics of split HaloTag™ fused to FKBP and FRB using different flexible linkers were observed via a fluorescence polarization assay in the presence or absence of rapamycin. Halo-TMR was used as substrate and each experiment was performed in triplicate.\nThe inventors further tested the performance of the split-HaloTag system of the invention for labelling protein-protein interactions in a simple model system. They used the strong interaction of the proteins FKBP and FRB, which is conditional on the presence of the small-molecule drug rapamycin. […] Different flexible linkers (1-3 times GGS) were placed between the interacting proteins (FKBP/FRP) and the split HaloTag™ fragments to assess the effect of linker length and to find well performing linker combinations (FIG. 14). […]"}}}
{"substance": "PEP2: 10mer Peptide 145-ARETFQAFRT-154, second partial effector sequence with extra C-terminal threonine (partial sensor sequence)", "values": [{"measurement": "effect of the extra threonine on reaction speed", "setting": "[1]", "value": "significant increase in the reaction speed"}, {"measurement": "effect of the extra threonine on reaction speed", "setting": "[2]", "value": "does not have much effect"}]}
